Test results as given in patent US4777143A, “Method of detecting carboxylic acids in a specimen” (priority 1986, dated 1988).
Where two headings read alike, the source gives them in different places.

Columns and labels:
[1] = Water miscibility of solvents; format: physicochemical; design: key: -: Where phase separation was visible; +: otherwise; settings: 0.5 ml water + 0.5 ml solvent
Experimental: Various solvents were tested for their utility with regard to (1) water miscibility, (2) guaiac solubility and (3) color development. Water miscibility was evaluated by admixing 0.5 ml of water with 0.5 ml each solvent, and noting any phase separation. Where phase separation was visible, a "-" appears in Table 2; otherwise, a "+" appears.

[2] = Guaiac solubility in solvents / reagent solubility in water
Experimental: Color developing reagent was prepared as follows. […] Four ml of a given solvent as indicated in Table 2 were added and the guaiac was allowed to dissolve to the extent possible.
Subsequently, 48 μl of 80% cumene hydroperoxide was added to each tube (except to that containing the water-only sample) to make a complete color developing reagent (solvent, chromogen, oxidant) for testing.

Compound | WATER MISCIBILITY [1] | GUAIAC SOLUBILITY ([2]; noted visually) | GUAIAC SOLUBILITY [2] | solubility of cumene hydroperoxide in water ([2]; water)
CC(Cl)(Cl)Cl [1,1,1-trichloroethane] | - | ++ |  | 
CC(C)c1ccc(CO)cc1 [4-Isopropyl-Benzyl Alcohol] | - | +++ |  | 
CC(=O)CC(C)(C)O [4-hydroxy, 4 methyl-pentanone] |  |  | +++ | 
CC(C)=O [Acetone] | + | +++ |  | 
OCc1ccccc1 [Benzyl Alcohol] | - |  | +++ | 
CC(C)c1ccccc1 [Cumene] | - | + |  | 
ClCCl [Dichloromethane] | - | ++ |  | 
CCO [Ethanol] | + |  | +++ | 
CCOC(C)=O [Ethyl Acetate] | - | ++ |  | 
OCCO [Ethylene Glycol] | + | +++ |  | 
CC(C)O [Isopropanol] | + | +++ |  | 
CCC(C)=O [Methyl Ethyl Ketone] | + |  |  | 
COC(=O)CC(C)=O [Methyl-Acetoacetate] | + | +++ |  | 
CCCCCCCCOC(C)=O [Octyl Acetate] | - |  | ++ | 
Cc1ccccc1 [Toluene] | - |  |  | 
CC(C)(OO)c1ccccc1 [cumene hydroperoxide, reference compound] |  |  |  | essentially insoluble in water
CCCCCCCO [n-Heptanol] | - | +++ |  | 
CCCCCCO [n-Hexanol] | - |  |  | 
CCCCCCCC [n-Octane] | - | - |  | 
CCCCCCCCO [n-Octanol] | - |  | +++ | 
CCCCCO [n-Pentanol] | - |  | +++ | 
Hexanes | - |  | - | 
